# Experimental data reported in US20060069132A1, “Azolecarboxamide herbicides” (priority 2004, published 2006).
# Like-named read-outs stand apart in the source and are kept apart here.
# Experiments:
# velvetleaf = assay: Test A pre-/postemergence herbicide test; format: in vivo, Abutilon theophrasti; settings: for pest or weed control at 500 g/ha / pest or weed control at 2000 g/ha: Abutilon theophrasti, 240 h
# Method in brief: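 Visual injury rating on a 0–100 scale (0 no effect, 100 complete control) versus untreated controls, about ten days after treatment in greenhouse. Pre: directed soil spray onto seeded sandy loam. Post: spray to runoff on plants 2–10 cm tall at one- to two-leaf stage.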
# corn = assay: Test B pre-/postemergence herbicide test; format: in vivo, Zea mays
# Method in brief: (§1)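 Seeds were planted and treated preemergence with compounds formulated in a non-phytotoxic solvent mixture containing surfactant, while plants at the 1- to 4-leaf stage (2 to 18 cm) received postemergence sprays. Flooded paddy plants were grown to the 2-leaf stage. After 13 to 15 days in a greenhouse, injury was visually rated 0–100 against untreated controls.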
# large crabgrass = assay: Test B pre-/postemergence herbicide test; format: in vivo, Digitaria sanguinalis; settings: for pest or weed control at 125 g/ha / pest or weed control at 500 g/ha: Digitaria sanguinalis
# Method in brief: as §1
# [1] = Postemergence, 2000 g ai/ha, 0 to 100 scale, 0 no effect, 100 complete control
# [2] = Preemergence, 2000 g ai/ha, visual rating, 0 to 100 scale (0 no effect, 100 complete control)
# [3] = 125 g ai/ha, 0 = no effect, 100 = complete control, preemergence
# [4] = 500 g ai/ha, visual rating, 0 = no effect, 100 = complete control, preemergence
# [5] = postemergence, 125 g ai/ha, visual rating, scale 0 (no effect) to 100 (complete control)
# [6] = postemergence, 500 g ai/ha, scale 0 to 100, 0 is no effect, 100 is complete control
# [7] = Preemergence, 500 g ai/ha, visual rating, 0 to 100 scale (0 no effect, 100 complete control)
# [8] = Postemergence, 500 g ai/ha, visual rating after 13 to 15 days, scale 0 (no effect) to 100 (complete control)
# [9] = preemergence, 125 g ai/ha, 0 to 100 scale, 0 is no effect, 100 is complete control
# [10] = Preemergence, 500 g ai/ha, scale 0 to 100
structure (smiles),measurement,setting,value
CCn1nc(C(C)(C)C)cc1C(=O)Nc1cccc(C(=O)N2CC=CC2)c1 [Compound 286],Velvetleaf plant response rating,"velvetleaf; Postemergence, 500 g ai/ha, 0 to 100 scale, 0 no effect, 100 complete control",30
same,"Plant response rating, Velvetleaf",velvetleaf; [1],50
same,Velvetleaf plant response rating,velvetleaf; [2],70
same,Velvetleaf plant response rating,"velvetleaf; preemergence, 500 g ai/ha, visual injury, 0 to 100 scale (0 no effect, 100 complete control)",20
same,Corn plant response rating (0 to 100 scale),corn; [3],0
same,"Plant response rating, Corn",corn; [4],50
same,Corn plant response rating,corn; [5],0
same,Corn plant response rating,corn; [6],10
same,"Crabgrass, Large plant response rating (0 to 100 scale)",large crabgrass; [3],0
same,"Plant response rating, Crabgrass, Large",large crabgrass; [4],100
same,"Crabgrass, Large plant response rating",large crabgrass; [5],0
same,"Crabgrass, Large plant response rating",large crabgrass; [6],10
CCn1nc(C(C)(C)C)cc1C(=O)Nc1cccc(C(=O)NOC)c1 [Compound 67],"Plant response rating, Velvetleaf",velvetleaf; [1],15
same,Velvetleaf plant response rating,velvetleaf; [7],30
same,Velvetleaf plant response rating,velvetleaf; [2],75
same,"Plant response rating, Corn",corn; [8],10
same,Corn plant response rating,corn; [5],10
same,"Plant response rating, Corn",corn; [9],0
same,"Plant response rating, Crabgrass, Large",large crabgrass; [8],10
same,"Crabgrass, Large plant response rating",large crabgrass; [10],20
same,"Crabgrass, Large plant response rating",large crabgrass; [5],10
same,"Plant response rating, Crabgrass, Large",large crabgrass; [9],0
"CCn1nc(C(C)(C)C)cc1C(=O)Nc1cccc(C(=O)OC)n1 [Compound 143, methyl 6-[[[3-(1,1-dimethylethyl)-1-ethyl-1H-pyrazol-5-yl]carbonyl]amino]-2-pyridinecarboxylate]",pest or weed control at 500 g/ha,"velvetleaf; post-emergence, Postemergence, 500 g ai/ha, 0 to 100 scale, 0 no effect, 100 complete control, read-out: Velvetleaf plant response rating",0%
same,pest or weed control at 2000 g/ha,"velvetleaf; post-emergence, Postemergence, 2000 g ai/ha, 0 to 100 scale, 0 no effect, 100 complete control, read-out: Plant response rating, Velvetleaf",15%
same,pest or weed control at 2000 g/ha,"velvetleaf; pre-emergence, Preemergence, 2000 g ai/ha, visual rating, 0 to 100 scale (0 no effect, 100 complete control), read-out: Velvetleaf plant response rating",0%
same,pest or weed control at 500 g/ha,"velvetleaf; pre-emergence, preemergence, 500 g ai/ha, visual injury, 0 to 100 scale (0 no effect, 100 complete control), read-out: Velvetleaf plant response rating",0%
same,plant injury at 125 g/ha,"corn; Zea mays, post-emergence, postemergence, 125 g ai/ha, visual rating, scale 0 (no effect) to 100 (complete control), read-out: Corn plant response rating",0%
same,plant injury at 500 g/ha,"corn; Zea mays, post-emergence, postemergence, 500 g ai/ha, visual rating, scale 0 (no effect) to 100 (complete control), read-out: Corn plant response rating",10%
same,"Corn plant response rating (crop injury, 0 = no effect, 100 = complete kill) at 500 g/ha","corn; Zea mays, pre-emergence, 500 g ai/ha, visual rating 0-100, 0 no effect, 100 complete control",0%
same,"Corn plant response rating (crop injury, 0 = no effect, 100 = complete kill) at 125 g/ha","corn; Zea mays, pre-emergence, preemergence, 125 g ai/ha, 0 to 100 scale, 0 is no effect, 100 is complete control",0%
same,pest or weed control at 125 g/ha,"large crabgrass; post-emergence, postemergence, 125 g ai/ha, visual rating, scale 0 (no effect) to 100 (complete control), read-out: Crabgrass, Large plant response rating",0%
same,pest or weed control at 500 g/ha,"large crabgrass; post-emergence, postemergence, 500 g ai/ha, visual rating, scale 0 (no effect) to 100 (complete control), read-out: Crabgrass, Large plant response rating",0%
same,pest or weed control at 500 g/ha,"large crabgrass; pre-emergence, 500 g ai/ha, visual rating 0-100, 0 no effect, 100 complete control, read-out: Plant response rating, Crabgrass, Large",0%
same,pest or weed control at 125 g/ha,"large crabgrass; pre-emergence, preemergence, 125 g ai/ha, 0 to 100 scale, 0 is no effect, 100 is complete control, read-out: Plant response rating, Crabgrass, Large",0%
CCOC(=O)c1cccc(NC(=O)c2cc(C(C)(C)C)nn2CCF)c1 [Compound 79],"Plant response rating, Velvetleaf",velvetleaf; [1],50
same,Velvetleaf plant response rating,velvetleaf; [7],20
same,Velvetleaf plant response rating,velvetleaf; [2],70
same,Corn plant response rating,corn; [10],0
same,"Plant response rating, Corn",corn; [9],0
same,"Plant response rating, Crabgrass, Large",large crabgrass; [8],30
same,"Crabgrass, Large plant response rating",large crabgrass; [10],0
same,"Crabgrass, Large plant response rating",large crabgrass; [5],20
same,"Plant response rating, Crabgrass, Large",large crabgrass; [9],0
